Measurements: US8124623B2, “5-hydroxymethyl-oxazolidin-2-one-derivatives and their uses as antibacterials” (Actelion Pharmaceuticals Ltd., priority 2006, dated 2012)
≈ marks a conversion by molar mass, not a printed value. Read-outs that look alike come from different tables or passages of the source. Each block holds one molecule with its values, some of them ahead of it.

System: S. aureus A798
Assay: MIC, broth microdilution (NCCLS)
Type: cell-based
Settings: Staphylococcus aureus
Description: These assays have been performed following the description given in “Methods for dilution Antimicrobial Susceptibility Tests for Bacteria that Grow Aerobically, 4th ed.; Approved standard: NCCLS Document M7-A4; National Committee for Clinical Laboratory Standards Villanova, Pa., USA, 1997”. Minimal inhibitory concentrations (MICs; mg/l) were determined in cation-adjusted Mueller-Hinton Broth (BBL) by a microdilution method following NCCLS guidelines (National Committee for Clinical Laboratory Standards. Methods for Dilution Antimicrobial Susceptibility). The pH1 of the test medium was 7.2-7.3. In the particular case wherein the compound to be tested is a compound of formula IPDc wherein at least one of R^1 and R^2 represents OPO3H2, then the test was carried out in the presence of human alkaline phosphatase (concentration: 1 U/mL). In the particular case wherein the compound to be tested is a compound of formula IPDG wherein R^1 represents a group OCOR^5, then the test may be carried out in the presence of 50% human serum.

[1] = A798, read-out: MIC S. aureus A798
[2] = A798, in the absence of human serum, read-out: MIC against S. aureus A798
[3] = A798, in the presence of human alkaline phosphatase (1 U/mL), read-out: MIC against S. aureus A798
[4] = A798, phosphatase absent, read-out: MIC against S. aureus A798

MIC [1]: 0.125 µg/mL
Compound: O=C(O)c1cn(C2CC2)c2cc(N3CCC(COc4ccc(N5C[C@H](CO)OC5=O)cc4F)C3)c(F)cc2c1=O (mixture of isomers) [Example 8, 1-cyclopropyl-6-fluoro-7-{(RS)-3-[2-fluoro-4-((R)-5-hydroxymethyl-2-oxo-oxazolidin-3-yl)-phenoxymethyl]-pyrrolidin-1-yl}-4-oxo-1,4-dihydro-quinoline-3-carboxylic acid]

MIC [1]: 1 µg/mL
Compound: COc1c(N2CCC(COc3ccc(N4C[C@H](CO)OC4=O)cc3F)C2)c(F)cc2c(=O)c(C(=O)O)cn(C3CC3)c12 (mixture of isomers) [Example 9, 1-cyclopropyl-6-fluoro-7-{(RS)-3-[2-fluoro-4-((R)-5-hydroxymethyl-2-oxo-oxazolidin-3-yl)-phenoxymethyl]-pyrrolidin-1-yl}-8-methoxy-4-oxo-1,4-dihydro-quinoline-3-carboxylic acid]

MIC [1]: 0.25 µg/mL (≈ 0.439 µM)
Compound: O=C(O)c1cn(C2CC2)c2cc(N3CCC(COc4ccc(N5C[C@H](CO)OC5=O)cc4F)CC3)c(F)cc2c1=O [Example 2, 1-cyclopropyl-6-fluoro-7-{4-[2-fluoro-4-((R)-5-hydroxymethyl-2-oxo-oxazolidin-3-yl)-phenoxymethyl]-piperidin-1-yl}-4-oxo-1,4-dihydro-quinoline-3-carboxylic acid]

MIC [2]: 0.5 µg/mL
Compound: C[C@H](N)C(=O)OC[C@H]1CN(c2ccc(OCC3(O)CCN(c4cc5c(cc4F)c(=O)c(C(=O)O)cn5C4CC4)CC3)c(F)c2)C(=O)O1.Cl [Example 4, 7-(4-{-4-[(R)-5-((S)-2-amino-propionyloxymethyl)-2-oxo-oxazolidin-3-yl]-2-fluoro-phenoxymethyl}-4-hydroxy-piperidin-1-yl)-1-cyclopropyl-6-fluoro-4-oxo-1,4-dihydro-quinoline-3-carboxylic acid hydrochloride]

MIC [3]: 0.25 µg/mL
MIC [4]: > 16 µg/mL
Compound: O=C(O)c1cn(C2CC2)c2cc(N3CCC(O)(COc4ccc(N5C[C@H](COP(=O)(O)O)OC5=O)cc4F)CC3)c(F)cc2c1=O [Example 5, 1-cyclopropyl-6-fluoro-7-{4-[2-fluoro-4-((R)-2-oxo-5-phosphonooxymethyl-oxazolidin-3-yl)-phenoxymethyl]-4-hydroxy-piperidin-1-yl}-4-oxo-1,4-dihydro-quinoline-3-carboxylic acid]

MIC [3]: 0.5 µg/mL
MIC [4]: 16 µg/mL (≈ 24 µM)
Compound: O=C(O)c1cn(C2CC2)c2cc(N3CCC(COc4ccc(N5C[C@H](CO)OC5=O)cc4F)(OP(=O)(O)O)CC3)c(F)cc2c1=O [Example 10, 1-cyclopropyl-6-fluoro-7-{4-[2-fluoro-4-((R)-5-hydroxymethyl-2-oxo-oxazolidin-3-yl)-phenoxymethyl]-4-phosphonooxy-piperidin-1-yl}-4-oxo-1,4-dihydro-quinoline-3-carboxylic acid]

MIC [2]: 0.5 µg/mL
Compound: C[C@H](N)C(=O)OC[C@H]1CN(c2ccc(OCC3CCN(c4cc5c(cc4F)c(=O)c(C(=O)O)cn5C4CC4)CC3)c(F)c2)C(=O)O1.Cl [Example 12, 7-(4-{4-[(R)-5-((S)-2-amino-propionyloxymethyl)-2-oxo-oxazolidin-3-yl]-2-fluoro-phenoxymethyl}-piperidin-1-yl)-1-cyclopropyl-6-fluoro-4-oxo-1,4-dihydro-quinoline-3-carboxylic acid hydrochloride]

MIC [1]: 2 µg/mL (≈ 3.67 µM)
Compound: O=C(O)c1c[nH]c2cc(N3CCC(O)(COc4ccc(N5C[C@H](CO)OC5=O)cc4F)CC3)c(F)cc2c1=O [Example 13, 6-fluoro-7-{4-[2-fluoro-4-((R)-5-hydroxymethyl-2-oxo-oxazolidin-3-yl)-phenoxymethyl]-4-hydroxy-piperidin-1-yl}-4-oxo-1,4-dihydro-quinoline-3-carboxylic acid]

MIC [1]: 4 µg/mL (≈ 7.32 µM)
Compound: O=C(O)c1c[nH]c2nc(N3CCC(O)(COc4ccc(N5C[C@H](CO)OC5=O)cc4F)CC3)c(F)cc2c1=O [Example 14, 6-fluoro-7-{4-[2-fluoro-4-((R)-5-hydroxymethyl-2-oxo-oxazolidin-3-yl)-phenoxymethyl]-4-hydroxy-piperidin-1-yl}-4-oxo-1,4-dihydro-[1,8]naphthyridine-3-carboxylic acid]
